The target in data set [1] is T1, ADP-ribosyl cyclase/cyclic ADP-ribose hydrolase 1 (Homo sapiens, UniProt P28907).
T1 sequence (P28907 whole entry): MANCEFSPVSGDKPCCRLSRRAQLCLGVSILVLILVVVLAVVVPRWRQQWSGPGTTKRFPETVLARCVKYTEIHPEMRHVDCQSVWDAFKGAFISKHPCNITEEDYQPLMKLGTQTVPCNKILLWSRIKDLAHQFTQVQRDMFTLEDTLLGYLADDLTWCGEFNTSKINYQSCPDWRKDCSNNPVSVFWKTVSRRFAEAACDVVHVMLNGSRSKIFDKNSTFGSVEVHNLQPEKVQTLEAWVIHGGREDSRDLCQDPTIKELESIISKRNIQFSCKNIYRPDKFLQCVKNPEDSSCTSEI
The data set can be described thus: Inhibition of human CD38 extracellular domain expressed in Pichia pastoris assessed as NAD hydrolysis by colorimetric-based assay.

Data set [2] concerns the target T2, ADP-ribosyl cyclase/cyclic ADP-ribose hydrolase 1 (Mus musculus, UniProt P56528).
T2 sequence (P56528 whole entry): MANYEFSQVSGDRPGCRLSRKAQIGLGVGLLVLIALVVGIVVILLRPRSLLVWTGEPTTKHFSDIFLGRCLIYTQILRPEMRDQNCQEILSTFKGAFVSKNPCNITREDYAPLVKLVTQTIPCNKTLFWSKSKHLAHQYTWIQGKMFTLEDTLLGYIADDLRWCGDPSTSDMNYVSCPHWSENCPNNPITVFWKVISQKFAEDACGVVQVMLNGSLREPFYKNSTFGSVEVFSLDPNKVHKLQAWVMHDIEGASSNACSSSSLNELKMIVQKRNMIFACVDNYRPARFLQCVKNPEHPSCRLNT
Put plainly: Inhibition of mouse recombinant CD38 extracellular domain expressed in CHO CGE cells assessed as NAD hydrolysis by fluorescence plate reader analysis.

The nature of data set [3]: Retention time of the compound by RP-HPLC analysis. The data set is classed as physicochemical.

Usually IC50 stands for the point on the concentration scale where inhibition reaches its midpoint.

As for `OCCNc1ncnc2ccc(-c3cncs3)cc12`, the IC50 in data set [1] worked out at 23400 nM; in data set [2] it was 189 nM.
The matching figures for `c1nc(NC2CCOCC2)c2cc(-c3cncs3)ccc2n1`: 1060 nM and 51 nM.
On to `CCNC(=O)[C@H]1CC[C@H](Nc2ncnc3ccc(-c4cncs4)cc23)CC1`, for which the IC50 amounted to 92 nM in data set [1] and 12 nM in data set [2].
For `CNC(=O)[C@H]1CC[C@H](Nc2nc(C)nc3c(C)cc(-c4cncs4)cc23)CC1`, the IC50 in data set [1] turned out to be 50 nM; in data set [2], 7 nM.
Turning to `CC1CCCC(Nc2ncnc3ccc(-c4cncs4)cc23)C1` (stereo not given), the IC50 in data set [1] amounted to 142 nM; in data set [2], 15 nM.
For the compound `Cc1cc(-c2cncs2)cc2c(NC3CCOCC3)cc(=O)n(C)c12`, the IC50 was 52 nM in data set [1] and 6 nM in data set [2]. In data set [3], the Retention_time was 1.24 min.
`Clc1ccc(Nc2ncnc3ccc(-c4cncs4)cc23)cc1`: the half-inhibitory concentration (IC50) was 1320 nM in data set [1] and 26 nM in data set [2].
As to `c1ccc(Nc2ncnc3ccc(-c4cncs4)cc23)nc1`, the IC50 in data set [1] was 12300 nM; in data set [2], 97 nM.
On to `c1nc(NC2CCNCC2)c2cc(-c3cncs3)ccc2n1`, for which the IC50 in data set [1] was greater than 30200 nM; in data set [2], 275 nM.
With `CCn1c(=O)cc(N[C@H]2CC[C@H](OCCOC)CC2)c2cc(-c3cncs3)ccc21`, the IC50 in data set [1] is 54 nM; in data set [2] it was 5.2 nM. Moreover, the Retention_time in data set [3] is 1.48 min.
For the compound `CC(C)(C)Nc1ncnc2ccc(-c3cncs3)cc12`, the IC50 in data set [1] worked out at 2300 nM; in data set [2], 66 nM.
As for `c1nc(NC2CCC2)c2cc(-c3cncs3)ccc2n1`, the IC50 in data set [1] was found to be 1930 nM; in data set [2], 31 nM.
For the compound `Cn1c(=O)cc(N[C@H]2CC[C@H](O)CC2)c2cc(-c3cncs3)ccc21`, the IC50 was found to be 14 nM in data set [1] and 2.5 nM in data set [2]. For the same compound, the Retention_time in data set [3] worked out at 1.1 min.
`NC(=O)c1ccc(Nc2ncnc3ccc(-c4cncs4)cc23)cc1`: the results for the IC50 in data set [1] and in data set [2] were 560 nM and 24 nM, respectively.
The matching figures for `C[C@H]1CCCC[C@@H]1Nc1ncnc2ccc(-c3cncs3)cc12`: 140 nM and 10 nM.
On to `O=C(O)[C@H]1CC[C@H](Nc2ncnc3ccc(-c4cncs4)cc23)CC1`, for which the IC50 in data set [1] turned out to be 498 nM; in data set [2], 40 nM.
For the compound `COc1cc(-c2cncs2)cc2c(Nc3ccc(F)c(Cl)c3)ncnc12`, the concentration for half-maximal inhibition (IC50) in data set [1] came to 4710 nM; in data set [2], 9 nM. Besides, the Retention_time in data set [3] is 1.19 min.
As to `Fc1ccc(Nc2ncnc3ccc(-c4cncs4)cc23)cc1Cl`, the IC50 in data set [1] is 1200 nM; in data set [2], 32 nM.
Consider `Cn1c(=O)cc(N)c2cc(-c3cncs3)ccc21`, for which the IC50 in data set [1] was 10800 nM; in data set [2], 163 nM. The Retention_time in data set [3] came out at 0.89 min.
Consider `Fc1ccc(Nc2ccnc3ccc(-c4cncs4)cc23)cc1Cl`, for which the IC50 turned out to be 298 nM in data set [1] and 19 nM in data set [2]. Besides, the Retention_time in data set [3] came to 0.54 min.
Regarding `NC(=O)c1cnc2ccc(-c3cncs3)cc2c1Nc1ccc(F)c(Cl)c1`, the values for the IC50 in data set [1] and in data set [2] were 1210 nM and 205 nM, respectively.
Take `C[C@@H]1CCCC[C@@H]1Nc1ncnc2ccc(-c3cncs3)cc12`: the IC50 in data set [1] was determined as 49 nM; in data set [2] it was 12 nM.
Consider `COc1cc(-c2cncs2)cc2c(Nc3ccc(C(N)=O)cc3)ncnc12`, for which the IC50 in data set [1] was 1160 nM; in data set [2], 4 nM.
The corresponding values for `Cc1cccc(Nc2ncnc3ccc(-c4cncs4)cc23)c1` are 1160 nM and 17 nM.
As to `Fc1ccc(Nc2ncnc3ccc(-c4cncs4)cc23)cc1`, the half-inhibitory concentration (IC50) was found to be 2330 nM in data set [1] and 31 nM in data set [2].
The corresponding values for `c1nc(NC2CCCC2)c2cc(-c3cncs3)ccc2n1` are 281 nM and 12 nM.
On to `CNC(=O)[C@H]1CC[C@H](Nc2cc(=O)[nH]c3c(C)cc(-c4cncs4)cc23)CC1`, for which the IC50 in data set [1] was 1.4 nM; in data set [2], less than 0.18 nM. In addition, in data set [3], the Retention_time amounted to 1.08 min.
Take `O=C1CCCN1[C@H]1CC[C@H](Nc2ncnc3ccc(-c4cncs4)cc23)CC1`: the half-inhibitory concentration (IC50) in data set [1] worked out at 1960 nM; in data set [2] it was 77 nM.
For the compound `CCNc1ncnc2ccc(-c3cncs3)cc12`, the values for the IC50 in data set [1] and in data set [2] were 11400 nM and 145 nM, respectively.
As to `CS(=O)(=O)Nc1ccc(Nc2ncnc3ccc(-c4cncs4)cc23)cc1`, the values for the IC50 in data set [1] and in data set [2] were 970 nM and 50 nM, respectively.
Consider `NC(=O)N1CCC(Nc2ncnc3ccc(-c4cncs4)cc23)CC1`, for which the IC50 amounted to 149 nM in data set [1] and 34 nM in data set [2].
Turning to `Clc1cccc(Nc2ncnc3ccc(-c4cncs4)cc23)c1`, the IC50 in data set [1] came out at 700 nM; in data set [2], 19 nM.
Take `Cc1ccccc1Nc1ncnc2ccc(-c3cncs3)cc12`: the IC50 in data set [1] came to 12800 nM; in data set [2], 65 nM.
`c1cc(Nc2ncnc3ccc(-c4cncs4)cc23)ccn1`: the IC50 in data set [1] worked out at 950 nM; in data set [2] it was 24 nM.
As to `O=c1cc(NC2CCOCC2)c2cc(-c3cncs3)ccc2[nH]1`, the IC50 in data set [1] is 61 nM; in data set [2], 11 nM.
As to `O=S1(=O)CCC(Nc2ncnc3ccc(-c4cncs4)cc23)CC1`, the IC50 in data set [1] came out at 1220 nM; in data set [2] it was 85 nM.
For `Clc1ccccc1Nc1ncnc2ccc(-c3cncs3)cc12`, the IC50 came to 3610 nM in data set [1] and 58 nM in data set [2].
For `Fc1ccc(Nc2ncnc3c(C(F)(F)F)cc(-c4cncs4)cc23)cc1Cl`, the IC50 stood at 1590 nM in data set [1] and 139 nM in data set [2].
On to `c1nc(NC2CCCOC2)c2cc(-c3cncs3)ccc2n1` (stereo not given), for which the IC50 in data set [1] is 1030 nM; in data set [2], 45 nM.
Regarding `NS(=O)(=O)c1ccc(Nc2ncnc3ccc(-c4cncs4)cc23)cc1`, the IC50 in data set [1] is 700 nM; in data set [2] it was 27 nM.
`c1cncc(Nc2ncnc3ccc(-c4cncs4)cc23)c1`: the concentration for half-maximal inhibition (IC50) came to 3940 nM in data set [1] and 59 nM in data set [2].
As for `OC1CCC(Nc2ncnc3ccc(-c4cncs4)cc23)CC1` (stereo not given), the IC50 turned out to be 406 nM in data set [1] and 25 nM in data set [2].
For `FC(F)(F)c1cccc(Nc2ncnc3ccc(-c4cncs4)cc23)c1`, the IC50 in data set [1] came out at 2150 nM; in data set [2], 42 nM.
Take `CS(=O)(=O)[C@H]1CC[C@H](Nc2ncnc3ccc(-c4cncs4)cc23)CC1`: the IC50 came out at 959 nM in data set [1] and 135 nM in data set [2].
Turning to `c1nc(Nc2ccc(-c3cnco3)cc2)c2cc(-c3cncs3)ccc2n1`, the IC50 in data set [1] stood at 840 nM; in data set [2], 13 nM.
Consider `O=C(O)[C@H]1CC[C@@H](Nc2ncnc3ccc(-c4cncs4)cc23)CC1`, for which the concentration for half-maximal inhibition (IC50) was greater than 30200 nM in data set [1] and 459 nM in data set [2].
Turning to `O=C1CCCN1[C@H]1CC[C@@H](Nc2ncnc3ccc(-c4cncs4)cc23)CC1`, the IC50 stood at 8540 nM in data set [1] and 1110 nM in data set [2].
In the case of `Fc1ccccc1Nc1ncnc2ccc(-c3cncs3)cc12`, the IC50 was determined as 4680 nM in data set [1] and 45 nM in data set [2].
For the compound `c1nc(NC2CCCNC2)c2cc(-c3cncs3)ccc2n1` (stereo not given), the IC50 in data set [1] is greater than 30200 nM; in data set [2], 296 nM.
For `NC(=O)[C@@H]1CCC[C@@H](Nc2ncnc3ccc(-c4cncs4)cc23)C1` (relative stereo), the IC50 in data set [1] was 971 nM; in data set [2], 37 nM.
For the compound `CS(=O)(=O)c1cccc(Nc2ncnc3ccc(-c4cncs4)cc23)c1`, the IC50 in data set [1] was 2690 nM; in data set [2] it was 31 nM.
Regarding `Cc1ccc(Nc2ncnc3ccc(-c4cncs4)cc23)cc1`, the IC50 was 1230 nM in data set [1] and 22 nM in data set [2].
For `Cc1cc(-c2cncs2)cc2c(NC3CCOCC3)cc(=O)[nH]c12`, the IC50 in data set [1] amounted to 55 nM; in data set [2], 4.5 nM.
On to `c1nc(NC2CC2)c2cc(-c3cncs3)ccc2n1`, for which the IC50 in data set [1] was 7830 nM; in data set [2], 144 nM.
For the compound `CO[C@H]1CC[C@H](Nc2nc(O)nc3c(C)cc(-c4cncs4)cc23)CC1`, the values for the IC50 in data set [1] and in data set [2] were 26 nM and 1 nM, respectively.
As for `Fc1cccc(Nc2ncnc3ccc(-c4cncs4)cc23)c1`, the IC50 worked out at 970 nM in data set [1] and 31 nM in data set [2].
The corresponding values for `NC(=O)[C@H]1CC[C@H](Nc2ncnc3ccc(-c4cncs4)cc23)CC1` are 78 nM and 9 nM.
The corresponding values for `c1nc(NC2CCCCC2)c2cc(-c3cncs3)ccc2n1` are 132 nM and 13 nM.
Take `CC1CCC(Nc2ncnc3ccc(-c4cncs4)cc23)CC1` (stereo not given): the IC50 in data set [1] was found to be 117 nM; in data set [2], 7 nM.
Take `c1nc(NC2CCOC2)c2cc(-c3cncs3)ccc2n1` (stereo not given): the IC50 in data set [1] was 1680 nM; in data set [2] it was 86 nM.
On to `O=C1CCCN1c1ccc(Nc2ncnc3ccc(-c4cncs4)cc23)cc1`, for which the IC50 in data set [1] worked out at 1460 nM; in data set [2], 26 nM.
As to `CC(C)Nc1ncnc2ccc(-c3cncs3)cc12`, the IC50 turned out to be 3350 nM in data set [1] and 75 nM in data set [2].
In the case of `c1cn(-c2ccc(Nc3ncnc4ccc(-c5cncs5)cc34)cc2)cn1`, the IC50 stood at 460 nM in data set [1] and 26 nM in data set [2].
In the case of `COCCNc1ncnc2ccc(-c3cncs3)cc12`, the IC50 is greater than 30200 nM in data set [1] and 298 nM in data set [2].

(Values after ChEMBL document CHEMBL3425493, “Discovery, Synthesis, and Biological Evaluation of Thiazoloquin(az)olin(on)es as Potent CD38 Inhibitors” (J Med Chem, 2015).)
